The nature of data set [1]: Cytotoxic concentration required to reduce CEM cell viability by 50%. It counts as cell-based. The following applies: human, CCRF-CEM (CEM) cells.
Data set [2] has as its system Cytomegalovirus. In words: Minimum Inhibition Concentration (MIC) for activity against Cytomegalovirus (CMV) using AD169 strain. The conditions noted are these: Human betaherpesvirus 5. In kind it is functional.
The nature of data set [3]: Cytotoxic concentration required to cause microscopically detectable alteration of normal cell morphology of E6SM cells. It counts as cell-based. The following applies: human, read-out: CC50.
Data set [4] in a line: Minimum cytotoxic concentration to reduce the HEL cell proliferation by 50%. It counts as cell-based. The following applies: human, HEL cells; read-out: MCC.
Data set [5] deals with Human alphaherpesvirus 3. Briefly: Minimum Inhibition Concentration (MIC) for activity against Varicella-Zoster Virus(VZV) using OKA (TK+) strain. It counts as functional.
Data set [6] relates to Human alphaherpesvirus 3. In words: Minimum Inhibition Concentration (MIC) for activity against Varicella-Zoster Virus(VZV) using YS(TK+) strain. It counts as functional.
Data set [7] relates to Human alphaherpesvirus 3. In words: Minimum Inhibition Concentration (MIC) for activity against Varicella-Zoster Virus(VZV) using 07/1 (TK-) strain. In kind it is functional.
For data set [8], the system named is Human alphaherpesvirus 3. Briefly: Minimum Inhibition Concentration( MIC) for activity against Varicella-Zoster Virus(VZV) using YS/R (TK-) strain. It counts as functional.
A short description of data set [9]: (§1) Cytotoxic concentration required to cause microscopically detectable alteration of normal cell morphology of Vero cells. In kind it is cell-based. The conditions noted are these: chlorocebus sabaeus, read-out: CC50.
Data set [10] deals with Cytomegalovirus. Briefly: Minimum Inhibition Concentration (MIC) for activity against Cytomegalovirus (CMV) using Davis strain. It counts as functional. The following applies: Human betaherpesvirus 5.
The nature of data set [11]: (§2) Cytotoxic concentration required to cause microscopically detectable alteration of normal cell morphology of HeLa cells. It counts as cell-based. The following applies: human, read-out: CC50.
Data set [12] relates to Human alphaherpesvirus 3. Briefly: Minimum Inhibition Concentration( MIC) for activity against Varicella-Zoster Virus(VZV) using YS(TK+) strain. In kind it is functional.
The test system of data set [13] is Human alphaherpesvirus 3. In words: Minimum Inhibition Concentration (MIC) for activity against Varicella-Zoster Virus(VZV) using YS/R (TK-) strain. It counts as functional.
Data set [14] relates to Cytomegalovirus. Briefly: Minimum Inhibition Concentration( MIC) for activity against Cytomegalovirus (CMV) using AD169 strain. It counts as functional. The conditions noted are these: Human betaherpesvirus 5.
Data set [15] deals with Cytomegalovirus. In words: Minimum Inhibitory Concentration (MIC) tested for activity against Cytomegalovirus (CMV) using AD169 strain. It counts as functional. The conditions noted are these: Human betaherpesvirus 5.
The subject of data set [16] is Cytomegalovirus. In words: Minimum Inhibitory Concentration (MIC) tested for activity against Cytomegalovirus (CMV) using Davis strain. In kind it is functional. The following applies: Human betaherpesvirus 5.
Data set [17] deals with Human alphaherpesvirus 3. Briefly: Minimum Inhibitory Concentration (MIC) tested for activity against Varicella-Zoster Virus(VZV) using YS(TK+) strain. In kind it is functional.
Data set [18] has as its system Human alphaherpesvirus 3. Briefly: Minimum Inhibition Concentration( MIC) for activity against Varicella-Zoster Virus(VZV) using 07/1 (TK-) strain. It counts as functional.
Data set [19] has as its system Human alphaherpesvirus 3. Briefly: Minimum Inhibitory Concentration (MIC) for activity against Varicella-Zoster Virus(VZV) using OKA (TK+) strain. In kind it is functional.
Data set [20] in a line: Minimum cytotoxic concentration required to reduce human embryonic lung (HEL) cell proliferation by 50%. It counts as cell-based. The conditions noted are these: human embryonic lung (HEL) cells, read-out: MCC.
Data set [21] has as its system Human alphaherpesvirus 3. In words: Minimum Inhibition Concentration (MIC) for activity against Varicella-Zoster Virus(VZV) using YS(TK+) strain. In kind it is functional.
Data set [22] deals with Human alphaherpesvirus 3. Briefly: Minimum Inhibition Concentration (MIC) for activity against Varicella-Zoster Virus(VZV) using YS/R (TK-) strain. In kind it is functional.
Data set [23] has as its system Vero. The data set is described as §1. In kind it is cell-based. The conditions noted are these: Chlorocebus sabaeus.
Data set [24] concerns HeLa. The data set is described as §2. It counts as cell-based. The following applies: Homo sapiens.
Data set [25] deals with Human alphaherpesvirus 3. Briefly: Minimum Inhibition Concentration (MIC) for activity against Varicella-Zoster Virus (VZV) using YS (TK+) strain. In kind it is functional.
The subject of data set [26] is Human alphaherpesvirus 3. In words: Minimum Inhibition Concentration (MIC) for activity against Varicella-Zoster Virus (VZV) using YS/R (TK-) strain. It counts as functional.

From ChEMBL document CHEMBL1129240, “Synthesis of acyclo-C-nucleosides in the imidazo[1,2-a]pyridine and pyrimidine series as antiviral agents” (J Med Chem, 1996) come the findings set out here.

What is called EC50 is the midpoint of the concentration-response curve. Higher therefore signals a less potent agent.

In brackets after ≈: the same amount, converted by molar mass.

Regarding `Cc1c(Br)cn2c(CSCc3ccccc3)cnc2c1Br`, the CC50 in data set [1] came out at 5 µg/mL (≈ 11.7 µM); in data set [4], 30 µg/mL (≈ 70.4 µM). Further, the MIC was greater than 1 µg/mL in [2]; 2.7 µg/mL (≈ 6.34 µM) in data set [5]; 1.8 µg/mL (≈ 4.22 µM) in [6]; 2.3 µg/mL (≈ 5.4 µM) in data set [7]; 2 µg/mL (≈ 4.69 µM) in [8]; 2 µg/mL (≈ 4.69 µM) in data set [10]. Besides, the MCC in data set [3], in [9] and in data set [11] was 40 µg/mL in each case.

Consider `Cc1cccn2c(CSCc3ccccc3)cnc12`, for which the CC50 in data set [1] came out at 0.5 µg/mL (≈ 1.86 µM); in data set [4], 8 µg/mL (≈ 29.8 µM). The figures for the MCC in [3], in data set [9] and in data set [11] were 40 µg/mL, 100 µg/mL and 4 µg/mL, respectively. Also, the MIC in data set [12] was 0.3 µg/mL (≈ 1.12 µM); in data set [5], 0.9 µg/mL (≈ 3.35 µM); in data set [13], greater than 1 µg/mL; in [7], 0.4 µg/mL (≈ 1.49 µM); in data set [14], 0.2 µg/mL (≈ 0.745 µM); in [10], 0.2 µg/mL (≈ 0.745 µM).

For the compound `CCSCc1cnc2cc(C)ccn12`, the CC50 stood at 11 µg/mL (≈ 53.3 µM) in [1] and 35 µg/mL (≈ 170 µM) in data set [4]. The MIC in [15] is greater than 10 µg/mL; in data set [16], 10 µg/mL (≈ 48.5 µM); in [17] it was greater than 10 µg/mL; in data set [18], greater than 10 µg/mL; in [19], greater than 10 µg/mL; in data set [13] it was greater than 10 µg/mL. The MCC in [3] was 40 µg/mL; in data set [9] it was 200 µg/mL; in data set [11] it was 100 µg/mL.

On to `OCCSCc1cnc2ccccn12`, for which the CC50 in [1] was 29 µg/mL (≈ 139 µM); in [20] it was greater than 100 µg/mL. Also, the MIC worked out at 40 µg/mL (≈ 192 µM) in data set [15]; 35 µg/mL (≈ 168 µM) in data set [16]; 25 µg/mL (≈ 120 µM) in data set [21]; 25 µg/mL (≈ 120 µM) in data set [22]; 25 µg/mL (≈ 120 µM) in data set [19]. Besides, the results for the MCC in data set [3], in data set [9] and in [11] were 400 µg/mL, 400 µg/mL and 200 µg/mL, respectively.

For the compound `CCCCOc1ccc(S(=O)(=O)[C@@](C)(Cc2ccc(OCCN3CCCCC3)cc2)C(=O)NO)cc1`, the EC50 in data set [23] and in [24] was greater than 400 µg/mL each time.

With `Cc1ccn2c(CSCc3ccccc3)cnc2c1`, the CC50 in data set [1] stood at 3.1 µg/mL (≈ 11.6 µM); in data set [4], 45 µg/mL (≈ 168 µM). Besides, the MIC was 3.5 µg/mL (≈ 13 µM) in data set [2]; 15 µg/mL (≈ 55.9 µM) in data set [5]; 17 µg/mL (≈ 63.3 µM) in data set [25]; 10 µg/mL (≈ 37.3 µM) in data set [26]; 3.5 µg/mL (≈ 13 µM) in data set [10]. The results for the MCC in data set [3], in data set [9] and in data set [11] were 100 µg/mL, 40 µg/mL and 40 µg/mL, respectively.
